Reference: US7084155B2, “Chemokine receptor binding heterocyclic compounds” (AnorMED, priority 2000, dated 2006)

Legend:
Format in all cases: cell-based
[1] = system: SDF-1 induced Ca flux in SUP-T1 cells; assay: Inhibition of chemokine (SDF-1) induced Ca flux measured on a FLIPR; conditions: Homo sapiens
Experimental: Inhibition of Chemokine Induced Ca Flux Measured on a FLIPR (Molecular Devices) Loading dye: Fluo-3, AM (Molecular Probes F-1241) is dissolved in anhydrous DMSO and stored frozen in aliquots. To increase the solubility of the dye in the loading medium, 10% (w/v) pluronic acid (Molecular Probes F-127) is added to the Fluo-3 stock solution immediately before use. HBSS+20 mM Hepes buffer+0.2% BSA, pH 7.4. HBSS 10× [(w/o phenol red and sodium bicarbonate (Gibco 14 065–049)]; Hepes buffer 1M (Gibco 15 630–056), BSA (Sigma A3675). The flux buffer is vacuum-filtered and stored refrigerated for a maximum of 5 days. Before use in the experiment, the buffer is warmed at 37° C. in a waterbath. The test compounds were diluted in flux buffer to the desired concentration and added to 4 wells of a black microplate (4 parallel measurements per compound). The following control wells were used: 100% response control (no inhibition), flux buffer was added; 100% inhibition control: chemokine was added at 5-times the concentration required to induce a Ca flux. The chemokines are diluted in flux buffer to concentrations that are 4-fold higher than the desired concentrations required for stimulation of the cells (i.e. 2.5 nM for SDF-1[…] and 0.6 nM for RANTES). The chemokines were added to untreated 96-well Sero well compound plates (International Medical, Sterilin code 611F96). In the negative control well's (baseline monitoring), flux buffer is added instead of chemokine. As a positive control to check for dye loading efficiency, 20 μM digitonin (final concentration) was also included. The agonist plate was incubated in the FLIPR (37° C.) for 15–30 min. Cell Loading Protocol for Measuring Inhibition of SDF-1[…] Induced Ca Flux in SUP-T1 Cells. SUP-T1 cells were centrifuged at room temperature (RT) and re-suspended in loading medium (RPMI-1640 containing 2% FBS and 4 μM Fluo-3, AM). The cells were incubate at room temperature for 45 min. then washed twice in flux buffer then incubated in flux buffer at room temperature for 10 min. The cells were centrifuged and re-suspended in flux buffer at a density of 3×10^6 cells per mL. A 100 uL aliquot of the cell suspension (3×10^5 cells) was added to each well of a black microplate (Costar 3603), which already contains 50 uL of a solution of the test compound (at concentrations that are 3-fold higher than the desired final compound concentrations). The microplate is then gently centrifuged at room temperature. Homogeneous spreading of the cells on the bottom of the microplate wells was then confirmed with a microscope and the microplate was incubated in the FLIPR (37° C.) for 10 min. prior to testing. Fluorescence Measurements as a Function of Time on the FLIPR The FLIPR settings (camera exposure time and laser power) are adjusted to obtain initial fluorescence values between 8,000 and 10,000 units. After monitoring a 20 second-baseline, the agonist (chemokine) (50 uL) is added by automatic pipettor with black pipette tips. Fluorescence is measured simultaneously in all wells of the microplate every 2 seconds (first 2 min) and thereafter every 6 seconds (additional 2 min). The average ca-flux measured in each set of 4 identical wells (one test compound) was calculated by the FLIPR software.

HIV-1 BaL = assay: Inhibition of HIV-1 BaL (CCR5 using) replication in PHA-stimulated PBMC's, viral p24 antigen expression; conditions: Human immunodeficiency virus 1, BAL
HIV-1 NL4.3 or IIIB = assay: Inhibition of HIV-1 (NL4.3 or IIIB, CXCR4 using) replication in MT-4 cells, MTT viability; conditions: Human immunodeficiency virus 1, IIIB, MT4, concentration protecting 50% of virus-infected cells against viral cytopathicity
Experimental: Assay for Inhibition of HIV-1 (NL4.3) Replication in MT-4 Cells Inhibition of HIV-1 NL4.3 (or IIIB, CXCR4 using) replication assays were performed as previously described (Bridger et al. J. Med. Chem. 1999, 42, 3971-3981; De […] et al. Proc. Natl. Acad. Sci, 1992, 89, 5286-5290; De […] et al. Antimicrob. Agents Chemother. 1994, 38, 668-674; Bridger et al. J. Med. Chem. 1995, 38, 366-378; Schols et al. J. Exp. Med., 1997, 186, 1383-1388). Anti-HIV activity and cytotoxicity measurements were carried out in parallel. They were based on the viability of MT-4 cells that had been infected with HIV in the presence of various concentrations of the test compounds. After the MT-4 cells were allowed to proliferate for 5 days, the number of viable cells was quantified by a tetrazolium-based colorimetric 3-(4,5-dimethylthiazol-2-yl)-2,5-diphenyltetrazolium bromide (MTT) procedure in 96-well microtrays. In all of these assays, viral input (viral multiplicity of infection, MOI) was 0.01, or 100 times the 50% cell culture infective dose (CCID50). The EC50 was defined as the concentration required to protect 50% of the virus-infected cells against viral cytopathicity.

Row | SMILES | inhibition at 20 µg/mL [1] [%] | EC50 (HIV-1 BaL) [µg/mL] | EC50 (HIV-1 NL4.3 or IIIB) [µg/mL]
1 | c1ccc(N[C@H]2CCCC[C@H]2NCc2ccc(CNCc3ccccn3)cc2)cc1 (relative stereo) [Example 132, N-(2-pyridinylmethyl)-N′-[cis-2-(N-phenylamino)cyclohexyl]-1,4-benzenedimethanamine] | > 20 | < 20 | < 20
2 | Oc1ccccc1CNCc1ccc(CN(Cc2nc3ccccc3[nH]2)C2CCCc3cccnc32)cc1 (stereo not drawn) [Example 68, N-(2-hydroxyphenylmethyl)-N′-(1H-benzimidazol-2-ylmethyl)-N′-(5,6,7,8-tetrahydro-8-quinolinyl)-1,4-benzenedimethanamine] | > 20 | < 20 | < 20
3 | FC(F)(F)c1c[nH]c(CN(Cc2ccc(CNCc3ccccn3)cc2)C2CCCc3cccnc32)n1 (stereo not drawn) [Example 35, N-(2-pyridinylmethyl)-N′-(4-trifluormethyl-1H-imidazol-2-ylmethyl)-N′-(5,6,7,8-tetrahydro-8-quinolinyl)-1,4-benzenedimethanamine] | > 20 | < 20 | < 20
4 | CC(C)(C)c1cnc(CN(Cc2ccc(CNCc3ccccn3)cc2)C2CCCc3cccnc32)[nH]1 (stereo not drawn) [Example 29, N-(2-Pyridinylmethyl)-N′-(5-tert-butyl-1H-imidazol-2-ylmethyl)-N′-(5,6,7,8-tetrahydro-8-quinolinyl)-1,4-benzenedimethanamine] | > 20 | < 20 | < 20
5 | CCCCc1ccc(CNCc2ccc(CN(Cc3nc4ccccc4[nH]3)C3CCCc4cccnc43)cc2)nc1 (stereo not drawn) [Example 54, N-(5-butyl-2-pyridinylmethyl)-N′-(1H-benzimidazol-2-ylmethyl)-N′-(5,6,7,8-tetrahydro-8-quinolinyl)-1,4-benzenedimethanamine] | > 20 | < 20 | < 20
6 | COc1cccc2[nH]c(CN(Cc3ccc(CNCc4ccccn4)cc3)C3CCCc4cccnc43)nc12 (stereo not drawn) [Example 13, N-(2-pyridinylmethyl)-N′-[4-methoxy-1H-benzimidazol-2-ylmethyl]-N′-(5,6,7,8-tetrahydro-8-quinolinyl)-1,4-benzenedimethanamine] | > 20 | < 20 | < 20
7 | c1ccc(CNCc2ccc(CN[C@H]3CCCC[C@H]3NCc3ccccn3)cc2)nc1 [Example 134, N-(2-pyridinylmethyl)-N′-[cis-2-[(N-pyridin-2-ylmethyl)amino]cyclohexyl]-1,4-benzenedimethanamine] | > 20 | < 20 | < 20
8 | Cc1cc(C)nc(CNCc2ccc(CN(Cc3nc4ccccc4[nH]3)C3CCCc4cccnc43)cc2)c1 (stereo not drawn) [Example 61, N-(4,6-dimethyl-2-pyridinylmethyl)-N′-(1H-benzimidazol-2-ylmethyl)-N′-(5,6,7,8-tetrahydro-8-quinolinyl)-1,4-benzenedimethanamine] | > 20 | < 20 | < 20
9 | COc1cc(CNCc2ccc(CN(Cc3nc4ccccc4[nH]3)C3CCCc4cccnc43)cc2)nc2ccccc12 (stereo not drawn) [Example 64, N-(4-methoxy-2-quinolinylmethyl)-N′-(1H-benzimidazol-2-ylmethyl)-N′-(5,6,7,8-tetrahydro-8-quinolinyl)-1,4-benzenedimethanamine] | > 20 | < 20 | < 20
10 | Cc1cc(CNCc2ccc(CN(Cc3nc4ccccc4[nH]3)C3CCCc4cccnc43)cc2)cc(C)n1 (stereo not drawn) [Example 62, N-(2,6-dimethyl-4-pyridinylmethyl)-N′-(1H-benzimidazol-2-ylmethyl)-N′-(5,6,7,8-tetrahydro-8-quinolinyl)-1,4-benzenedimethanamine] | > 20 | < 20 | < 20
11 | CC(NCc1ccc(CN(Cc2nc3ccccc3[nH]2)C2CCCc3cccnc32)cc1)c1ccccn1 (stereo not drawn) [Example 66, N-[1-(2-pyridinyl)eth-1-yl]-N′-(1H-benzimidazol-2-ylmethyl)-N′-(5,6,7,8-tetrahydro-8-quinolinyl)-1,4-benzenedimethanamine] | > 20 | < 20 | < 20
12 | COc1cccc(-c2cnc(CN(Cc3ccc(CNCc4ccccn4)cc3)C3CCCc4cccnc43)[nH]2)c1 (stereo not drawn) [Example 30, N-(2-Pyridinylmethyl)-N′-[5-(3-methoxyphenyl)-1H-imidazol-2-ylmethyl]-N′-(5,6,7,8-tetrahydro-8-quinolinyl)-1,4-benzenedimethanamine] | > 20 | < 20 | < 20
13 | Cc1nc(CN(Cc2ccc(CNCc3ccccn3)cc2)C2CCCc3cccnc32)[nH]c1-c1ccccc1 (stereo not drawn) [Example 28, N-(2-Pyridinylmethyl)-N′-(4-methyl-5-phenyl-1H-imidazol-2-ylmethyl)-N′-(5,6,7,8-tetrahydro-8-quinolinyl)-1,4-benzenedimethanamine] | > 20 | < 20 | < 20
14 | c1ccc(CNCc2ccc(CN(CCNCc3nc4ccccc4[nH]3)C3CCCc4cccnc43)cc2)nc1 (stereo not drawn) [Example 67, N-(2-pyridinylmethyl)-N′-[2-[(1H-benzimidazol-2-ylmethyl)amino]ethyl]-N′-(5,6,7,8-tetrahydro-8-quinolinyl)-1,4-benzenedimethanamine] | > 20 | < 20 | < 20
15 | c1ccc(-c2cnc(CN(Cc3ccc(CNCc4ccccn4)cc3)C3CCCc4cccnc43)[nH]2)cc1 (stereo not drawn) [Example 25, N-(2-pyridinylmethyl)-N′-(4-Phenyl-1H-imidazol-2-ylmethyl)-N′-(5,6,7,8-tetrahydro-8-quinolinyl)-1,4-benzenedimethanamine] | > 20 | < 20 | < 20
16 | c1cnc2c(c1)CCCC2N(Cc1ccc(CNCc2cc3ccccc3cn2)cc1)Cc1nc2ccccc2[nH]1 (stereo not drawn) [Example 63, N-(3-isoquinolinylmethyl)-N′-(1H-benzimidazol-2-ylmethyl)-N′-(5,6,7,8-tetrahydro-8-quinolinyl)-1,4-benzenedimethanamine] | > 20 | < 20 | < 20
17 | Oc1cccnc1CNCc1ccc(CN(Cc2nc3ccccc3[nH]2)C2CCCc3cccnc32)cc1 (stereo not drawn) [Example 55, N-(3-hydroxy-2-pyridinylmethyl)-N′-(1H-benzimidazol-2-ylmethyl)-N′-(5,6,7,8-tetrahydro-8-quinolinyl)-1,4-benzenedimethanamine] | > 20 | < 20 | < 20
18 | Cc1cc2nc(CN(Cc3ccc(CNCc4ccccn4)cc3)C3CCCc4cccnc43)[nH]c2cc1C (stereo not drawn) [Example 2, N-(2-pyridinylmethyl)-N′-(5,6-dimethyl-1-H-benzimidazol-2-ylmethyl)-N′-(5,6,7,8-tetrahydro-8-quinolinyl)-1,4-benzenedimethanamine] | > 20 | < 20 | < 20
